Biological target: T1, GPR6 receptor expressed in CHO-K1 cells (Homo sapiens, UniProt P46095)
T1 construct: expressed in transfected cells
Assay: In vitro inhibition of cAMP (EC50), cell-based HTRF cAMP assay
Settings: inhibition of constitutive cAMP activity of GPR6 in CHO-K1 cells
Summary of the method: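 Cellular cAMP measured by Lance Ultra HTRF (Eu-cAMP tracer, ULight anti-cAMP), with EC50 fitted by four-parameter logistic. Test compounds sat on cells 45 min, 37 °C, in pH 7.4 Ringer's with 300 μM IBMX and 0.5% BSA; GPR6 in CHO-K1 induced beforehand by doxycycline, 2 μg/mL, 20 h.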

T1 sequence (P46095 whole entry): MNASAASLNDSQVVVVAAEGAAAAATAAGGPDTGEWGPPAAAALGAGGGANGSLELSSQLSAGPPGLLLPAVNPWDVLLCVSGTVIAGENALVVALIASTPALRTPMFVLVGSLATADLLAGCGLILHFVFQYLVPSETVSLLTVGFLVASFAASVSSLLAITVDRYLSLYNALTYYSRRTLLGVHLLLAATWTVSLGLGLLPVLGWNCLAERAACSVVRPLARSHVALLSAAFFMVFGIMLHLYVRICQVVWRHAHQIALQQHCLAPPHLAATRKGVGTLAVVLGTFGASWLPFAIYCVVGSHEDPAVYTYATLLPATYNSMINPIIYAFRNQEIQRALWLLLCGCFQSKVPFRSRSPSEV

Q: Cn1ncc2ccc(NC(=O)c3ccccn3)c(N3CCC(Oc4ccc(F)cc4F)CC3)c21 [Example 77, N-(7-(4-(2,4-difluorophenoxy)piperidin-1-yl)-1-methyl-1H-indazol-6-yl)picolinamide] was tested. Which “pEC50, in vitro inhibition of cAMP” value did it give?
A: The value was <5.7.

Q: How did the “pEC50, in vitro inhibition of cAMP” value turn out when COc1ccnc(C(=O)Nc2cc(C#N)ccc2N2CCC(Oc3ccc(F)cc3F)CC2)n1 [Example 138, N-(5-cyano-2-(4-(2,4-difluorophenoxy)piperidin-1-yl)phenyl)-4-methoxypyrimidine-2-carboxamide] was run?
A: Its value is <4.5.

Q: How did the “pEC50, in vitro inhibition of cAMP” value turn out when COc1ncccc1C(=O)Nc1cc(C#N)ccc1N1CCN(Cc2ccc(F)cn2)CC1 [Example 244] was run?
A: The value was 6.3.

Q: With COc1nn(C)cc1C(=O)Nc1cc(C)cnc1N1CCN(Cc2ccc(C#N)c(F)c2)CC1 [Example 102, N-(2-(4-(4-cyano-3-fluorobenzyl)piperazin-1-yl)-5-methylpyridin-3-yl)-3-methoxy-1-methyl-1H-pyrazole-4-carboxamide] as the compound, how does the “pEC50, in vitro inhibition of cAMP” value read?
A: Its value is 6.1.

Q: How did the “pEC50, in vitro inhibition of cAMP” value turn out when Cn1cccc(C(=O)Nc2cc(C#N)ccc2N2CCC(Oc3ccccc3F)CC2)c1=O [Example 8] was run?
A: The value was 6.9.

Q: With COc1ccc(C(=O)N2CCN(c3ccc(C#N)cc3NC(=O)c3cccnc3OC)CC2)c(F)c1 [Example 284, N-(5-cyano-2-(4-(2-fluoro-4-methoxybenzoyl)piperazin-1-yl)phenyl)-2-methoxynicotinamide] as the compound, how does the “pEC50, in vitro inhibition of cAMP” value read?
A: The value was 6.6.

Q: For Cn1cccc(C(=O)Nc2cc(C#N)ccc2N2CCC(Oc3ncc(F)cc3F)CC2)c1=O [Example 293, N-(5-cyano-2-(4-((3,5-difluoropyridin-2-yl)oxy)piperidin-1-yl)phenyl)-1-methyl-2-oxo-1,2-dihydropyridine-3-carboxamide], which “pEC50, in vitro inhibition of cAMP” value is on record?
A: Its value is 6.6.

Q: Which “pEC50, in vitro inhibition of cAMP” value does the source give for COc1ccc(N2CCOCC2)cc1C(=O)Nc1cc(C#N)ccc1N1CCC(Oc2ccc(F)cc2F)CC1 [Example 215, N-(5-cyano-2-(4-(2,4-difluorophenoxy)piperidin-1-yl)phenyl)-2-methoxy-5-morpholinobenzamide] here?
A: The value was 5.5.

Q: Which “pEC50, in vitro inhibition of cAMP” value does the source give for COc1ccc(Cl)c(OC)c1C(=O)Nc1cc(C#N)ccc1N1CCC(Oc2ccc(F)cc2F)CC1 [Example 212, 3-chloro-N-(5-cyano-2-(4-(2,4-difluorophenoxy)piperidin-1-yl)phenyl)-2,6-dimethoxybenzamide] here?
A: Its value is <4.5.

Q: COc1ncccc1C(=O)Nc1cc(C#N)ccc1N1CCN(C(C)c2ccc(F)cc2)CC1 (centres unmarked) [Example 288] was tested. Which “pEC50, in vitro inhibition of cAMP” value did it give?
A: The value was 6.0.

Q: For COc1ncccc1C(=O)Nc1cc(C#N)ccc1N1CCN(Cc2cccc(F)c2)CC1 [Example 240, N-(5-cyano-2-(4-(3-fluorobenzyl)piperazin-1-yl)phenyl)-2-methoxynicotinamide], which “pEC50, in vitro inhibition of cAMP” value is on record?
A: The value was 6.8.

Q: O=C(Nc1ccc2nccnc2c1N1CCC(Oc2ccc(F)cc2F)CC1)c1ccccn1 [Example 150, N-(5-(4-(2,4-difluorophenoxy)piperidin-1-yl)quinoxalin-6-yl)picolinamide] was tested. Which “pEC50, in vitro inhibition of cAMP” value did it give?
A: The value was <5.7.

Q: Which “pEC50, in vitro inhibition of cAMP” value does the source give for COc1nn(C)cc1C(=O)Nc1cc(C)cnc1N1CCC(Oc2ccc(F)cc2F)CC1 [Example 36, N-(2-(4-(2,4-difluorophenoxy)piperidin-1-yl)-5-methylpyridin-3-yl)-3-methoxy-1-methyl-1H-pyrazole-4-carboxamide] here?
A: Its value is 7.0.

Q: With Cc1cccnc1C(=O)Nc1cc(C#N)cnc1N1CCC(Oc2ccc(F)cc2F)CC1 [Example 59, N-(5-cyano-2-(4-(2,4-difluorophenoxy)piperidin-1-yl)pyridin-3-yl)-3-methylpicolinamide] as the compound, how does the “pEC50, in vitro inhibition of cAMP” value read?
A: The value was 7.3.

Q: How did the “pEC50, in vitro inhibition of cAMP” value turn out when COc1cc(F)c(F)cc1C(=O)Nc1cc(C#N)ccc1N1CCC(Oc2ccc(F)cc2F)CC1 [Example 229] was run?
A: Its value is 7.3.

Q: For COc1nn(C)cc1C(=O)Nc1cc(C#N)cnc1N1CCN(Cc2ccc(F)c(C#N)c2)CC1 [Example 154, N-(5-cyano-2-(4-(3-cyano-4-fluorobenzyl)piperazin-1-yl)pyridin-3-yl)-3-methoxy-1-methyl-1H-pyrazole-4-carbonamide], which “pEC50, in vitro inhibition of cAMP” value is on record?
A: The value was 6.5.

Q: Cn1ccc(C(=O)Nc2cc(C#N)ccc2N2CCC(Oc3ccc(F)cc3F)CC2)n1 [Example 42, N-(5-cyano-2-(4-(2,4-difluorophenoxy)piperidin-1-yl)phenyl)-1-methyl-1H-pyrazole-3-carboxamide] was tested. Which “pEC50, in vitro inhibition of cAMP” value did it give?
A: Its value is 6.9.

Q: How did the “pEC50, in vitro inhibition of cAMP” value turn out when CN(C)C(=O)Cn1cccc(C(=O)Nc2cc(C#N)ccc2N2CCC(Oc3ccc(F)cc3F)CC2)c1=O [Example 204, N-(5-cyano-2-(4-(2,4-difluorophenoxy)piperidin-1-yl)phenyl)-1-(2-(dimethylamino)-2-oxoethyl)-2-oxo-1,2-dihydropyridine-3-carboxamide] was run?
A: Its value is 4.9.

Q: With COc1ccc(OC2CCN(c3ccc(S(C)(=O)=O)cc3NC(=O)c3cn(CCF)nc3OC)CC2)c(F)c1 [Example 1, V-(2-(4-(2-fluoro-4-methoxyphenoxy)piperidin-1-yl)-5-(methylsulfonyl)phenyl)-1-(2-fluoroethyl)-3-methoxy-1H-pyrazole-4-carboxamide] as the compound, how does the “pEC50, in vitro inhibition of cAMP” value read?
A: Its value is 7.2.

Q: CCc1cc(C(=O)Nc2cc(C#N)ccc2N2CCC(Oc3ccc(F)cc3F)CC2)no1 [Example 118, N-(5-cyano-2-(4-(2,4-difluorophenoxy)piperidin-1-yl)phenyl)-5-ethylisoxazole-3-carboxamide] was tested. Which “pEC50, in vitro inhibition of cAMP” value did it give?
A: The value was 6.4.

Q: With COc1nn(C)cc1C(=O)Nc1cnc(C)cc1N1CCC(S(=O)(=O)c2ccc(F)cc2F)CC1 [Example 99, N-(4-(4-((2,4-difluorophenyl)sulfonyl)piperidin-1-yl)-6-methylpyridin-3-yl)-3-methoxy-1-methyl-1H-pyrazole-4-carboxamide] as the compound, how does the “pEC50, in vitro inhibition of cAMP” value read?
A: The value was 6.1.

Q: Which “pEC50, in vitro inhibition of cAMP” value does the source give for COc1nn(C)cc1C(=O)Nc1cc(C#N)cnc1N1CCN(Cc2ccccc2OC(F)(F)F)CC1 [Example 167, N-(5-cyano-2-(4-(2-(trifluoromethoxy)benzyl)piperazin-1-yl)pyridin-3-yl)-3-methoxy-1-methyl-1H-pyrazole-4-carboxamide] here?
A: Its value is 6.5.

Q: COc1cc(Cl)ccc1C(=O)Nc1cc(C#N)ccc1N1CCC(Oc2ccc(F)cc2F)CC1 [Example 228, 4-chloro-N-(5-cyano-2-(4-(2,4-difluorophenoxy)piperidin-1-yl)phenyl)-2-methoxybenzamide] was tested. Which “pEC50, in vitro inhibition of cAMP” value did it give?
A: Its value is 7.2.

Q: With Cc1cnc(C(=O)Nc2cc(C#N)ccc2N2CCC(Oc3ccc(F)cc3F)CC2)c(C)n1 [Example 114, N-(5-cyano-2-(4-(2,4-difluorophenoxy)piperidin-1-yl)phenyl)-3,5-dimethylpyrazine-2-carboxamide] as the compound, how does the “pEC50, in vitro inhibition of cAMP” value read?
A: The value was 6.1.

Q: For COc1ccc(Cl)cc1C(=O)Nc1cc(C#N)ccc1N1CCC(Oc2ccc(F)cc2F)CC1 [Example 211, 5-chloro-N-(5-cyano-2-(4-(2,4-difluorophenoxy)piperidin-1-yl)phenyl)-2-methoxybenzamide], which “pEC50, in vitro inhibition of cAMP” value is on record?
A: The value was 6.7.

Q: Which “pEC50, in vitro inhibition of cAMP” value does the source give for CNC(=O)c1cc(N2CCC(Oc3ccc(F)cc3F)CC2)c(NC(=O)c2cccnc2OC)cn1 [Example 19, 4-(4-(2,4-difluorophenoxy)piperidin-1-yl)-5-(2-methoxynicotinamido)-N-methylpicolinamide] here?
A: Its value is 6.7.
